Source: ChEMBL document CHEMBL5365481, “Design, Synthesis, and Activity Evaluation of Novel Dual-Target Inhibitors with Antifungal and Immunoregulatory Properties” (J Med Chem, 2023)
≈ marks a conversion by molar mass, not a printed value.

test system: Pichia kudriavzevii; experiment: Antifungal activity against Candida krusei ATCC 6258 assessed as inhibition of fungal growth incubated for 72 hrs by CLSI based liquid medium microdilution method; format: functional

Row | Compound | MIC50 [µg/mL]
1 | O=C(NC1CCCc2ccccc21)c1nc(-n2ccnc2)c2cc(Cl)ccc2n1 (stereo not given) | 4 (≈ 9.9 µM)
2 | CC(=O)c1ccc(NC(=O)c2nc(-n3cncn3)c3cc(Cl)ccc3n2)cc1 | 1 (≈ 2.55 µM)
3 | CC(C)c1ccc(C(=O)N2CCC(NC(=O)c3nc(-n4cncn4)c4ccccc4n3)CC2)cc1 | 0.5 (≈ 1.06 µM)
4 | O=C(NC1CCN(C(=O)c2ccccc2)CC1)c1nc(-n2cncn2)c2ccccc2n1 | 1 (≈ 2.34 µM)
5 | CC(=O)c1ccc(NC(=O)c2nc(-n3cncn3)c3ccccc3n2)cc1 | 1 (≈ 2.79 µM)
6 | O=C(NCc1ccccc1)c1nc(-n2cncn2)c2ccccc2n1 | 4 (≈ 12.1 µM)

test system: Aspergillus fumigatus; experiment: Antifungal activity against Aspergillus fumigatus KM8001 assessed as inhibition of fungal growth incubated for 72 hrs by CLSI based liquid medium microdilution method; format: functional

Row | Compound | MIC50 [µg/mL]
7 | O=C(NC1CCCc2ccccc21)c1nc(-n2ccnc2)c2cc(Cl)ccc2n1 (stereo not given) | > 8
8 | CC(=O)c1ccc(NC(=O)c2nc(-n3cncn3)c3cc(Cl)ccc3n2)cc1 | 4 (≈ 10.2 µM)
9 | CC(C)c1ccc(C(=O)N2CCC(NC(=O)c3nc(-n4cncn4)c4ccccc4n3)CC2)cc1 | 4 (≈ 8.52 µM)
10 | O=C(NC1CCN(C(=O)c2ccccc2)CC1)c1nc(-n2cncn2)c2ccccc2n1 | 4 (≈ 9.36 µM)
11 | CC(=O)c1ccc(NC(=O)c2nc(-n3cncn3)c3ccccc3n2)cc1 | 2 (≈ 5.58 µM)
12 | O=C(NCc1ccccc1)c1nc(-n2cncn2)c2ccccc2n1 | > 8

test system: Candida tropicalis; experiment: Antifungal activity against Candida tropicalis ATCC 1369 assessed as inhibition of fungal growth incubated for 72 hrs by CLSI based liquid medium microdilution method; format: functional

Row | Compound | MIC50 [µg/mL]
13 | O=C(NC1CCCc2ccccc21)c1nc(-n2ccnc2)c2cc(Cl)ccc2n1 (stereo not given) | 4 (≈ 9.9 µM)
14 | CC(=O)c1ccc(NC(=O)c2nc(-n3cncn3)c3cc(Cl)ccc3n2)cc1 | 0.5 (≈ 1.27 µM)
15 | CC(C)c1ccc(C(=O)N2CCC(NC(=O)c3nc(-n4cncn4)c4ccccc4n3)CC2)cc1 | 1 (≈ 2.13 µM)
16 | O=C(NC1CCN(C(=O)c2ccccc2)CC1)c1nc(-n2cncn2)c2ccccc2n1 | 1 (≈ 2.34 µM)
17 | CC(=O)c1ccc(NC(=O)c2nc(-n3cncn3)c3ccccc3n2)cc1 | 0.5 (≈ 1.4 µM)
18 | O=C(NCc1ccccc1)c1nc(-n2cncn2)c2ccccc2n1 | 1 (≈ 3.03 µM)

test system: Candida albicans; experiment: Antifungal activity against Candida albicans ATCC SC5314 assessed as inhibition of fungal growth incubated for 72 hrs by CLSI based liquid medium microdilution method; format: functional

Row | Compound | MIC50 [µg/mL]
19 | O=C(NC1CCCc2ccccc21)c1nc(-n2ccnc2)c2cc(Cl)ccc2n1 (stereo not given) | > 8
20 | CC(=O)c1ccc(NC(=O)c2nc(-n3cncn3)c3cc(Cl)ccc3n2)cc1 | 0.5 (≈ 1.27 µM)
21 | CC(C)c1ccc(C(=O)N2CCC(NC(=O)c3nc(-n4cncn4)c4ccccc4n3)CC2)cc1 | 0.5 (≈ 1.06 µM)
22 | O=C(NC1CCN(C(=O)c2ccccc2)CC1)c1nc(-n2cncn2)c2ccccc2n1 | 1 (≈ 2.34 µM)
23 | CC(=O)c1ccc(NC(=O)c2nc(-n3cncn3)c3ccccc3n2)cc1 | 0.5 (≈ 1.4 µM)
24 | O=C(NCc1ccccc1)c1nc(-n2cncn2)c2ccccc2n1 | 2 (≈ 6.05 µM)

test system: Cryptococcus neoformans; experiment: Antifungal activity against Cryptococcus neoformans ZKCC 2209 assessed as inhibition of fungal growth incubated for 72 hrs by CLSI based liquid medium microdilution method; format: functional

Row | Compound | MIC50 [µg/mL]
25 | O=C(NC1CCCc2ccccc21)c1nc(-n2ccnc2)c2cc(Cl)ccc2n1 (stereo not given) | 2 (≈ 4.95 µM)
26 | CC(=O)c1ccc(NC(=O)c2nc(-n3cncn3)c3cc(Cl)ccc3n2)cc1 | 2 (≈ 5.09 µM)
27 | CC(C)c1ccc(C(=O)N2CCC(NC(=O)c3nc(-n4cncn4)c4ccccc4n3)CC2)cc1 | 2 (≈ 4.26 µM)
28 | O=C(NC1CCN(C(=O)c2ccccc2)CC1)c1nc(-n2cncn2)c2ccccc2n1 | 2 (≈ 4.68 µM)
29 | CC(=O)c1ccc(NC(=O)c2nc(-n3cncn3)c3ccccc3n2)cc1 | 0.5 (≈ 1.4 µM)
30 | O=C(NCc1ccccc1)c1nc(-n2cncn2)c2ccccc2n1 | 2 (≈ 6.05 µM)
